What was measured:
BT-474 = assay: normalised viability (% of control), CellTiter-Blue; higher = more viable cells (about 100 = DMSO control); conditions: 100 nM; incubation time: 72 h
Description: (§1)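 DSRT, CellTiter-Blue viability, 72 h incubation. Signal is normalised to DMSO and benzethonium chloride controls. Value is the normalised response at dose 3.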

BT-549 = assay: as above; conditions: 100 nM; incubation time: 72 h
Description: as §1

CAL-120 = assay: as above; conditions: 100 nM; incubation time: 72 h
Description: as §1

CAL-148 [1] = assay: as above; conditions: 10 nM; incubation time: 72 h
Description: as §1

CAL-51 [2] = assay: as above; conditions: 10 nM; incubation time: 72 h
Description: as §1

CAL-85-1 [3] = assay: as above; conditions: 10 nM; incubation time: 72 h
Description: as §1

DU-4475 [4] = assay: as above; conditions: 10 nM; incubation time: 72 h
Description: as §1

HCC1143 [5] = assay: as above; conditions: 100 nM; incubation time: 72 h
Description: as §1

HCC1599 [6] = assay: as above; conditions: 100 nM; incubation time: 72 h
Description: as §1

HCC1937 = assay: as above; conditions: 100 nM; incubation time: 72 h
Description: as §1

HDQ-P1 = assay: as above; conditions: 10 nM; incubation time: 72 h
Description: as §1

Hs578T = assay: as above; conditions: 100 nM; incubation time: 72 h
Description: as §1

MDA-MB-231 = assay: as above; conditions: 100 nM; incubation time: 72 h
Description: as §1

MDA-MB-436 [7] = assay: as above; conditions: 100 nM; incubation time: 72 h
Description: as §1

MDA-MB-453 = assay: as above; conditions: 10 nM; incubation time: 72 h
Description: as §1

MDA-MB-468 [8] = assay: as above; conditions: 100 nM; incubation time: 72 h
Description: as §1

MFM-223 = assay: as above; conditions: 100 nM; incubation time: 72 h
Description: as §1

SK-BR-3 [9] = assay: as above; conditions: 100 nM; incubation time: 72 h
Description: as §1

CAL-148 [10] = assay: normalised viability (% of control), CellTiter-Blue; higher = more viable cells (about 100 = DMSO control); conditions: 300 nM; incubation time: 72 h
In short: (§2)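 Normalised viability is given for a single listed concentration of the series. In 384-well plates, breast cancer cell lines were incubated 72 h with compound, then read with CellTiter-Blue (2 h, 37 °C) at 560/590 nm. Per-plate scaling set vehicle to 100 and a positive kill control to 0, with Z'-factor quality control.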

CAL-51 [11] = assay: as above; conditions: 300 nM; incubation time: 72 h
In short: as §2

CAL-85-1 [12] = assay: as above; conditions: 300 nM; incubation time: 72 h
In short: as §2

DU-4475 [13] = assay: as above; conditions: 300 nM; incubation time: 72 h
In short: as §2

CAL-148 [14] = assay: drug sensitivity score (DSS), CellTiter-Glo (DSS (AUC-based score)); higher = stronger drug effect (viability inhibition or cytotoxicity); extreme values may be limits of the assay; conditions: incubation time: 72 h
In short: (§3)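 A drug sensitivity score was derived from the area under each fitted dose-response curve. Breast cancer cells (20 µl suspension) were seeded onto compound in 384-well plates, using 5 concentrations 10-fold apart over a compound-specific 10,000-fold range, and incubated 72 h. Readouts were CellTox Green fluorescence and then CellTiter-Glo luminescence, with every plate normalised to 0.1 % DMSO and a positive kill control.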

HCC1143 [15] = assay: as above; conditions: incubation time: 72 h
In short: as §3

HCC1599 [16] = assay: as above; conditions: incubation time: 72 h
In short: as §3

MCF-10A = assay: as above; conditions: incubation time: 72 h
In short: as §3

MDA-MB-436 [17] = assay: as above; conditions: incubation time: 72 h
In short: as §3

MDA-MB-468 [18] = assay: as above; conditions: incubation time: 72 h
In short: as §3

SK-BR-3 [19] = assay: as above; conditions: incubation time: 72 h
In short: as §3

SMILES | normalised viability (BT-474) | normalised viability (BT-549) | normalised viability (CAL-120) | normalised viability (CAL-148 [1]) | normalised viability (CAL-51 [2]) | normalised viability (CAL-85-1 [3]) | normalised viability (DU-4475 [4]) | normalised viability (HCC1143 [5]) | normalised viability (HCC1599 [6]) | normalised viability (HCC1937) | normalised viability (HDQ-P1) | normalised viability (Hs578T) | normalised viability (MDA-MB-231) | normalised viability (MDA-MB-436 [7]) | normalised viability (MDA-MB-453) | normalised viability (MDA-MB-468 [8]) | normalised viability (MFM-223) | normalised viability (SK-BR-3 [9]) | normalised viability (CAL-148 [10]) | normalised viability (CAL-51 [11]) | normalised viability (CAL-85-1 [12]) | normalised viability (DU-4475 [13]) | drug sensitivity score (CAL-148 [14]) | drug sensitivity score (HCC1143 [15]) | drug sensitivity score (HCC1599 [16]) | drug sensitivity score (MCF-10A) | drug sensitivity score (MDA-MB-436 [17]) | drug sensitivity score (MDA-MB-468 [18]) | drug sensitivity score (SK-BR-3 [19])
O=C(Cc1ccc(-c2ccc(OCCN3CCOCC3)cc2)cn1)NCc1ccccc1 [KX2-391] | 63.5% | 27.8% | 27.6% | 89.1% | 101% | 88.1% | 94.4% | 33% | 88% | 25.1% | 108% | 20.7% | 26.1% | 59.9% | 107% | 47.6% | 52.8% | 19.3% | 20.4% | 13.9% | 36.3% | 9.43% | 16.9 | 14.7 | 23.8 | 8.52 | 21 | 20 | 27.5
O=C(O)C(=O)O.[NH-][C@@H]1CCCC[C@H]1[NH-].[Pt+2] [Oxaliplatin] | 127% | 89.1% | 91% | 127% | 103% | 92% | 95.9% | 98.2% | 96.1% | 89.1% | 119% | 95.7% | 89% | 96.1% | 114% | 107% | 91.8% | 94% | 121% | 95.5% | 96.9% | 113% | 0 | 0 | 0 | 0 | 0 | 0 | 0
COc1cc2nccc(Oc3ccc(NC(=O)Nc4cc(C)on4)c(Cl)c3)c2cc1OC [Tivozanib] | 112% | 90.4% | 106% | 95.6% | 99% | 103% | 115% | 113% | 119% | 88.2% | 79% | 91.5% | 91.1% | 88.1% | 94.5% | 96.8% | 80.8% | 105% | 95.9% | 89.8% | 102% | 109% | 0 | 0 | 0 | 1.39 | 0 | 0 | 0
CCCCC(=O)OCC(=O)[C@]1(O)Cc2c(O)c3c(c(O)c2[C@@H](O[C@H]2C[C@H](NC(=O)C(F)(F)F)[C@H](O)[C@H](C)O2)C1)C(=O)c1c(OC)cccc1C3=O [Valrubicin] | 109% | 85.2% | 77.3% | 91.6% | 92.2% | 84.2% | 89.4% | 86.4% | 92.2% | 73.7% | 120% | 79.7% | 77% | 122% | 103% | 92.1% | 91.9% | 57.8% | 35.5% | 34.5% | 75.1% | 23.4% | 13.8 | 8.06 | 2.29 | 8.72 | 9.03 | 11.1 | 12.4

— the supplement of paper PMC4862054
